Data: ChEMBL document CHEMBL3745631, “Discovery of highly potent and selective Bruton's tyrosine kinase inhibitors: Pyridazinone analogs with improved metabolic stability” (Bioorg Med Chem Lett, 2016)

system: Liver microsome; assay: Intrinsic clearance in human liver microsomes at 1 uM by LC-MS/MS analysis in presence of NADPH; format: ADME

| CLH [mL/min/kg] | SMILES |
| --- | --- |
| 6 | Cc1ccc(-c2cc(Nc3cc4n(n3)CCN(C)C4)c(=O)[nH]n2)c(F)c1NC(=O)c1cc2ccccc2s1 |
| > 15 | CN1CCn2nc(Nc3cc(-c4ccc(F)c(NC(=O)c5cc6ccccc6s5)c4)n[nH]c3=O)cc2C1 |
| > 15 | Cc1c(NC(=O)c2cc3ccccc3s2)cccc1-c1cc(Nc2cc3n(n2)CCN(C)C3)c(=O)[nH]n1 |
| > 15 | Cc1ccc(-c2cc(Nc3cc4n(n3)CCN(C)C4)c(=O)[nH]n2)c(C)c1NC(=O)c1cc2ccccc2s1 |
| 6 | Cc1c(-c2cc(Nc3cc4n(n3)CCN(C)C4)c(=O)[nH]n2)ccc(F)c1NC(=O)c1cc2ncccc2s1 |
| > 15 | Cc1c(-c2cc(Nc3cc4n(n3)CCN(C)C4)c(=O)[nH]n2)ccc(F)c1NC(=O)c1ccc(C(C)(C)C)cc1 |
| > 15 | CN1CCn2nc(Nc3cc(-c4ccc(F)c(NC(=O)c5cc6ccccc6s5)c4F)n[nH]c3=O)cc2C1 |
| 6 | Cc1c(-c2cc(Nc3cc4n(n3)CCN(C)C4)c(=O)[nH]n2)ccc(F)c1NC(=O)c1cnc(C(C)(C)C)cn1 |
| 6 | Cc1c(-c2cc(Nc3cc4n(n3)CCN(C)C4)c(=O)[nH]n2)ccc(F)c1NC(=O)c1cc2cccnc2s1 |

system: Hepatocyte; assay: Intrinsic clearance in human hepatocytes at 1 uM by LC-MS/MS analysis; format: ADME, cell-based

| CLH [mL/min/kg] | SMILES |
| --- | --- |
| > 15 | CN1CCn2nc(Nc3cc(-c4ccc(F)c(NC(=O)c5cc6ccccc6s5)c4)n[nH]c3=O)cc2C1 |
| 6 | Cc1c(-c2cc(Nc3cc4n(n3)CCN(C)C4)c(=O)[nH]n2)ccc(F)c1NC(=O)c1cc2ncccc2s1 |
| 6 | Cc1c(-c2cc(Nc3cc4n(n3)CCN(C)C4)c(=O)[nH]n2)ccc(F)c1NC(=O)c1ccc(C(C)(C)C)cc1 |
| 6 | CN1CCn2nc(Nc3cc(-c4ccc(F)c(NC(=O)c5cc6ccccc6s5)c4F)n[nH]c3=O)cc2C1 |
| 6 | Cc1c(-c2cc(Nc3cc4n(n3)CCN(C)C4)c(=O)[nH]n2)ccc(F)c1NC(=O)c1cnc(C(C)(C)C)cn1 |

target: Tyrosine-protein kinase BTK (Mus musculus, UniProt P35991); assay: Inhibition of BTK in Balb/c mouse B cells assessed as inhibition of anti-IgM-stimulated CD86 expression by flow cytometry; format: cell-based
Sequence (P35991 whole entry): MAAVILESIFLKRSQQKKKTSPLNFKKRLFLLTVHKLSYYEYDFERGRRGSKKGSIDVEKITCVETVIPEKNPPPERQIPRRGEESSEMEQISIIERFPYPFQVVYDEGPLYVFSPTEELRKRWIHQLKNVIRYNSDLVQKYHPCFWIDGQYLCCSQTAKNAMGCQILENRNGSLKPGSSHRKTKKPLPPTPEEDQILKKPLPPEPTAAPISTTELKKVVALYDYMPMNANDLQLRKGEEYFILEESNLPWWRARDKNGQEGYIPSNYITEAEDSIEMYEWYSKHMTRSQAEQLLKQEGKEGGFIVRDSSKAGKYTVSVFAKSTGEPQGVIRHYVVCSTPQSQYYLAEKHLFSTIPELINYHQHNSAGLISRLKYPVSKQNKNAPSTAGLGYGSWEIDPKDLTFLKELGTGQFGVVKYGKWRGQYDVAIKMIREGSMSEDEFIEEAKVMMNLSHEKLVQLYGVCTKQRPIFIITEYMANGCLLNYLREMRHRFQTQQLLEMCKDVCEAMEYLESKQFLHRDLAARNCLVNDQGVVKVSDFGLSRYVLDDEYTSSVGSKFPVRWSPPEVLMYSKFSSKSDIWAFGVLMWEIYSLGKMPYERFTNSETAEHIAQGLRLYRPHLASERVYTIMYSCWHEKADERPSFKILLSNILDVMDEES

| IC50 [µM] | SMILES |
| --- | --- |
| 0.2 | Cc1ccc(-c2cc(Nc3cc4n(n3)CCN(C)C4)c(=O)[nH]n2)c(F)c1NC(=O)c1cc2ccccc2s1 |
| 0.05 | CN1CCn2nc(Nc3cc(-c4ccc(F)c(NC(=O)c5cc6ccccc6s5)c4)n[nH]c3=O)cc2C1 |
| 0.041 | Cc1c(NC(=O)c2cc3ccccc3s2)cccc1-c1cc(Nc2cc3n(n2)CCN(C)C3)c(=O)[nH]n1 |
| 0.387 | Cc1ccc(-c2cc(Nc3cc4n(n3)CCN(C)C4)c(=O)[nH]n2)c(C)c1NC(=O)c1cc2ccccc2s1 |
| 0.68 | Cc1c(-c2cc(Nc3cc4n(n3)CCN(C)C4)c(=O)[nH]n2)ccc(F)c1NC(=O)c1cc2ncccc2s1 |
| 0.054 | Cc1c(-c2cc(Nc3cc4n(n3)CCN(C)C4)c(=O)[nH]n2)ccc(F)c1NC(=O)c1ccc(C(C)(C)C)cc1 |
| 0.018 | CN1CCn2nc(Nc3cc(-c4ccc(F)c(NC(=O)c5cc6ccccc6s5)c4F)n[nH]c3=O)cc2C1 |
| 0.09 | Cc1c(-c2cc(Nc3cc4n(n3)CCN(C)C4)c(=O)[nH]n2)ccc(F)c1NC(=O)c1cnc(C(C)(C)C)cn1 |
| 0.74 | Cc1c(-c2cc(Nc3cc4n(n3)CCN(C)C4)c(=O)[nH]n2)ccc(F)c1NC(=O)c1cc2cccnc2s1 |

system: Liver microsome; assay: Intrinsic clearance in human liver microsomes at 1 uM by LC-MS/MS analysis in absence of NADPH; format: ADME

| CLH [mL/min/kg] | SMILES |
| --- | --- |
| 6 | Cc1ccc(-c2cc(Nc3cc4n(n3)CCN(C)C4)c(=O)[nH]n2)c(F)c1NC(=O)c1cc2ccccc2s1 |
| < 6 | CN1CCn2nc(Nc3cc(-c4ccc(F)c(NC(=O)c5cc6ccccc6s5)c4)n[nH]c3=O)cc2C1 |
| > 15 | Cc1c(NC(=O)c2cc3ccccc3s2)cccc1-c1cc(Nc2cc3n(n2)CCN(C)C3)c(=O)[nH]n1 |
| < 6 | CN1CCN(C)C(c2ccc(Nc3nc(-c4ccc(F)c(NC(=O)c5cc6c(s5)CCCC6)c4)cn(C)c3=O)cc2)C1=O (stereo in doubt; 7) |
| 6 | CN1CCN(C)C(c2ccc(Nc3nc(-c4ccc(F)c(NC(=O)c5cc6c(s5)CCCC6)c4F)cn(C)c3=O)cc2)C1=O (configuration not stated) |
| < 6 | Cc1ccc(-c2cn(C)c(=O)c(Nc3ccc(C4C(=O)N(C)CCN4C)cc3)n2)c(C)c1NC(=O)c1cc2c(s1)CCCC2 (racemic) |
| > 15 | CN1CCN(C)C(c2ccc(Nc3nc(-c4cccc(NC(=O)c5cc6c(s5)CCCC6)c4Cl)cn(C)c3=O)cc2)C1=O (racemic) |
| < 6 | Cc1ccc(-c2cn(C)c(=O)c(Nc3ccc([C@H]4C(=O)N(C)CCN4C)cc3)n2)c(F)c1NC(=O)c1cc2c(s1)CCCC2 |
| < 6 | CN1CCN(C)C(c2ccc(Nc3nc(-c4ccc(Cl)c(NC(=O)c5cc6c(s5)CCCC6)c4F)cn(C)c3=O)cc2)C1=O (configuration not stated) |
| 6 | Cc1c(-c2cn(C)c(=O)c(Nc3ccc(C4C(=O)N(C)CCN4C)cc3)n2)ccc(Cl)c1NC(=O)c1cc2c(s1)CCCC2 (racemic) |
| 6 | CN1CCN(C)C(c2ccc(Nc3nc(-c4ccc(Cl)c(NC(=O)c5cc6c(s5)CCCC6)c4Cl)cn(C)c3=O)cc2)C1=O (racemic) |
| < 6 | Cc1ccc(-c2cn(C)c(=O)c(Nc3ccc([C@@H]4C(=O)N(C)CCN4C)cc3)n2)c(F)c1NC(=O)c1cc2c(s1)CCCC2 |
| < 6 | Cc1ccc(-c2cn(C)c(=O)c(Nc3ccc(C4C(=O)N(C)CCN4C)cc3)n2)c(Cl)c1NC(=O)c1cc2c(s1)CCCC2 (configuration not stated) |
| 6 | CN1CCN(C)C(c2ccc(Nc3nc(-c4ccc(Cl)c(NC(=O)c5cc6c(s5)CCCC6)c4)cn(C)c3=O)cc2)C1=O (racemic) |
| < 6 | Cc1ccc(-c2cc(Nc3cc4n(n3)CCN(C)C4)c(=O)[nH]n2)c(C)c1NC(=O)c1cc2ccccc2s1 |
| 6 | Cc1c(-c2cc(Nc3cc4n(n3)CCN(C)C4)c(=O)[nH]n2)ccc(F)c1NC(=O)c1cc2ncccc2s1 |
| 6 | Cc1c(-c2cn(C)c(=O)c(Nc3ccc(C4C(=O)N(C)CCN4C)cc3)n2)ccc(F)c1NC(=O)c1cc2c(s1)CCCC2 (stereo in doubt; 13) |
| 6 | Cc1c(-c2cc(Nc3cc4n(n3)CCN(C)C4)c(=O)[nH]n2)ccc(F)c1NC(=O)c1ccc(C(C)(C)C)cc1 |
| < 6 | CN1CCN(C)C(c2ccc(Nc3nc(-c4ccc(C#N)c(NC(=O)c5cc6c(s5)CCCC6)c4)cn(C)c3=O)cc2)C1=O (racemic) |
| < 6 | Cc1c(-c2cn(C)c(=O)c(Nc3ccc(C4C(=O)N(C)CCN4C)cc3)n2)ccc(F)c1NC(=O)c1cc2c(s1)CCCC2 (stereo in doubt; 14) |
| 6 | CN1CCN(C)C(c2ccc(Nc3nc(-c4ccc(F)c(NC(=O)c5cc6c(s5)CCCC6)c4)cn(C)c3=O)cc2)C1=O (stereo in doubt; 8) |
| 6 | Cc1c(-c2cc(Nc3cc4n(n3)CCN(C)C4)c(=O)[nH]n2)ccc(F)c1NC(=O)c1cnc(C(C)(C)C)cn1 |
| > 15 | CN1CCN(C)C(c2ccc(Nc3nc(-c4cccc(NC(=O)c5cc6c(s5)CCCC6)c4F)cn(C)c3=O)cc2)C1=O (racemic) |
| > 15 | CN1CCN(C)C(c2ccc(Nc3nc(-c4cccc(NC(=O)c5cc6c(s5)CCCC6)c4)cn(C)c3=O)cc2)C1=O (racemic) |
| 6 | Cc1c(-c2cc(Nc3cc4n(n3)CCN(C)C4)c(=O)[nH]n2)ccc(F)c1NC(=O)c1cc2cccnc2s1 |

| SMILES | CLH [mL/min/kg] |
| --- | --- |
| Cc1c(NC(=O)c2cc3c(s2)CCCC3)cccc1-c1cn(C)c(=O)c(Nc2ccc([C@@H]3C(=O)N(C)CCN3C)cc2)n1 | > 15 |

target: Tyrosine-protein kinase BTK (Homo sapiens, UniProt Q06187); assay: Inhibition of BTK (unknown origin) by Lanthascreen assay
Sequence (Q06187 whole entry): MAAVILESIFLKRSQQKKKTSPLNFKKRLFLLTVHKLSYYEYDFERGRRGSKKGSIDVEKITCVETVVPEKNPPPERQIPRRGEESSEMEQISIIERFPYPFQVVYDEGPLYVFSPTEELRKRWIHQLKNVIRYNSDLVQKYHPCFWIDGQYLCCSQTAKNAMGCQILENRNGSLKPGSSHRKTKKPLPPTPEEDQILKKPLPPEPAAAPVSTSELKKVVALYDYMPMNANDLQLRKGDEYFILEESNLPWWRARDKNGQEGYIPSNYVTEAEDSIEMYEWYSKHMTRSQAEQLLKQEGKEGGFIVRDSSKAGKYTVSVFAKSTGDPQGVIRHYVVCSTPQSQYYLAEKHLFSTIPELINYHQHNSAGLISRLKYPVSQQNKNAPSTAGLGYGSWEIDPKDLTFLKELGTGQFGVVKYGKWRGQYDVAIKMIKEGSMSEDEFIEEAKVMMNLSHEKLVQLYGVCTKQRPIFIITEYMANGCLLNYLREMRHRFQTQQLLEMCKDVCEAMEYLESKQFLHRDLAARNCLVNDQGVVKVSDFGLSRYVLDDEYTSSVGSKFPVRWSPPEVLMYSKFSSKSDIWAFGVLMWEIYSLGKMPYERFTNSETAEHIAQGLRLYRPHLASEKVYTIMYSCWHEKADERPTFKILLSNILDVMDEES

| IC50 [µM] | SMILES |
| --- | --- |
| 0.011 | Cc1ccc(-c2cc(Nc3cc4n(n3)CCN(C)C4)c(=O)[nH]n2)c(F)c1NC(=O)c1cc2ccccc2s1 |
| 0.004 | Cc1c(-c2cc(Nc3cc4n(n3)CCN(C)C4)c(=O)[nH]n2)ccc(F)c1NC(=O)c1ccc(C(C)(C)C)cc1 |
| 0.004 | Cc1c(-c2cc(Nc3cc4n(n3)CCN(C)C4)c(=O)[nH]n2)ccc(F)c1NC(=O)c1cnc(C(C)(C)C)cn1 |
